In patent US20060069132A1, “Azolecarboxamide herbicides” (priority 2004, published 2006):

Key:
barnyardgrass [1] = test: Test A pre-/postemergence herbicide test; assay type: in vivo, Echinochloa crus-galli
In short: (§1)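 Plants are held in greenhouse about ten days after treatment, then compared with untreated controls and scored 0 (no effect) to 100 (complete control). Preemergence dosing is a directed soil spray on sown sandy loam; postemergence dosing is spray to runoff at 2–10 cm height.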

large crabgrass [2] = test: Test A pre-/postemergence herbicide test; assay type: in vivo, Digitaria sanguinalis
In short: as §1

giant foxtail [3] = test: Test A pre-/postemergence herbicide test; assay type: in vivo, Setaria faberi
In short: as §1

morningglory [4] = test: Test A pre-/postemergence herbicide test; assay type: in vivo, Ipomoea spp.
In short: as §1

redroot pigweed = test: Test A pre-/postemergence herbicide test; assay type: in vivo, Amaranthus retroflexus
In short: as §1

velvetleaf [5] = test: Test A pre-/postemergence herbicide test; assay type: in vivo, Abutilon theophrasti
In short: as §1

barnyardgrass [6] = test: Test B pre-/postemergence herbicide test; assay type: in vivo, Echinochloa crus-galli; conditions: for Plant response rating, Barnyardgrass: preemergence; for Barnyardgrass plant response rating: postemergence, visual rating, scale 0 (no effect) to 100 (complete control)
In short: (§2)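 Response was scored visually 13 to 15 days after treatment against untreated greenhouse controls, 0 meaning no effect and 100 complete control. Formulations (solvent mixture plus surfactant) went onto soil after planting, onto foliage of 1- to 4-leaf plants, and onto 2-leaf plants in a flooded paddy set including rice and barnyardgrass.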

Surinam grass = test: Test B pre-/postemergence herbicide test; assay type: in vivo, Urochloa decumbens; conditions: for Plant response rating, Surinam Grass: preemergence; for Surinam Grass plant response rating: postemergence, visual rating, scale 0 (no effect) to 100 (complete control)
In short: (§3)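 Visual rating, 0 (no effect) to 100 (complete control), versus untreated controls after 13–15 d in greenhouse. Pre- and postemergence applications (postemergence plants 2–18 cm, 1–4 leaves); flooded paddy arm at 2-leaf stage. Compounds in non-phytotoxic solvent plus surfactant.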

cocklebur = test: Test B pre-/postemergence herbicide test; assay type: in vivo, Xanthium strumarium; conditions: for Plant response rating, Cocklebur: preemergence; for Cocklebur plant response rating: postemergence, visual rating, scale 0 (no effect) to 100 (complete control)
In short: as §2

corn = test: Test B pre-/postemergence herbicide test; assay type: in vivo, Zea mays; conditions: for Plant response rating, Corn: preemergence; for Corn plant response rating: postemergence, visual rating, scale 0 (no effect) to 100 (complete control)
In short: as §3

large crabgrass [7] = test: Test B pre-/postemergence herbicide test; assay type: in vivo, Digitaria sanguinalis; conditions: for Plant response rating, Crabgrass, Large: preemergence; for Crabgrass, Large plant response rating: postemergence, visual rating, scale 0 (no effect) to 100 (complete control)
In short: as §3

giant foxtail [8] = test: Test B pre-/postemergence herbicide test; assay type: in vivo, Setaria faberi; conditions: for Plant response rating, Foxtail, Giant: preemergence; for Foxtail, Giant plant response rating: postemergence, visual rating, scale 0 (no effect) to 100 (complete control)
In short: as §3

lambsquarters = test: Test B pre-/postemergence herbicide test; assay type: in vivo, Chenopodium album; conditions: for Plant response rating, Lambsquarters: preemergence; for Lambsquarters plant response rating: postemergence, visual rating, scale 0 (no effect) to 100 (complete control)
In short: as §3

morningglory [9] = test: Test B pre-/postemergence herbicide test; assay type: in vivo, Ipomoea coccinea; conditions: for Morningglory plant response rating: postemergence, visual rating, scale 0 (no effect) to 100 (complete control)
In short: as §2

pigweed = test: Test B pre-/postemergence herbicide test; assay type: in vivo, Amaranthus retroflexus; conditions: for Plant response rating, Pigweed: preemergence; for Pigweed plant response rating: postemergence, visual rating, scale 0 (no effect) to 100 (complete control)
In short: as §3

velvetleaf [10] = test: Test B pre-/postemergence herbicide test; assay type: in vivo, Abutilon theophrasti; conditions: for Plant response rating, Velvetleaf: preemergence; for Velvetleaf plant response rating: postemergence, visual rating, scale 0 (no effect) to 100 (complete control)
In short: as §3

blackgrass = test: Test B postemergence herbicide test; assay type: in vivo, Alopecurus myosuroides; conditions: postemergence, visual rating, scale 0 (no effect) to 100 (complete control)
In short: (§4)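 Visual control ratings, 0–100 versus untreated controls, taken after 13 to 15 days in the greenhouse. Blackgrass received a postemergence spray at the 1- to 4-leaf stage (2–18 cm); ducksalad, umbrella sedge and barnyardgrass were flooded-paddy treated at 2 leaves.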

wheat = test: Test B postemergence herbicide test; assay type: in vivo, Triticum aestivum; design: key to Wheat plant response rating: 0 = no effect, 100 = complete control; conditions: postemergence, visual rating, scale 0 (no effect) to 100 (complete control)
In short: (§5)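 Visual ratings, 0 (no effect) to 100 (complete control), made versus controls after 13–15 d greenhouse. Paddy plants treated at 2-leaf stage; postemergence plants at 1- to 4-leaf stage, 2–18 cm tall.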

wild oat = test: Test B postemergence herbicide test; assay type: in vivo, Avena fatua; conditions: postemergence, visual rating, scale 0 (no effect) to 100 (complete control)
In short: as §5

rice = test: Test B flooded paddy test; assay type: in vivo, Oryza sativa; conditions: 1000 g ai/ha, visual rating, scale 0 to 100 (0 no effect, 100 complete control), 13 to 15 days
In short: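 Read-out: visual comparison with controls, scored 0 to 100, where 100 means complete control and 0 no effect. Formulated chemicals were applied postemergence to plants 2–18 cm tall (1- to 4-leaf), or to flooded-paddy plants at the 2-leaf stage, then held 13 to 15 days under glass.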

[11] = system: small flower umbrella sedge; test: Test B flooded paddy test; assay type: in vivo, Cyperus difformis; conditions: 1000 g ai/ha, visual rating, scale 0 to 100 (0 no effect, 100 complete control), 13 to 15 days
In short: as §4

ducksalad = test: Test B flooded paddy test; assay type: in vivo, Heteranthera limosa; conditions: 1000 g ai/ha, visual rating, scale 0 to 100 (0 no effect, 100 complete control), 13 to 15 days
In short: as §4

barnyardgrass [12] = test: Test B flooded paddy test; assay type: in vivo, Echinochloa crus-galli; conditions: 1000 g ai/ha, visual rating, scale 0 to 100 (0 no effect, 100 complete control), 13 to 15 days
In short: as §4

[13] = Postemergence, 500 g ai/ha, 0 to 100 scale, 0 no effect, 100 complete control
[14] = Postemergence, 2000 g ai/ha, 0 to 100 scale, 0 no effect, 100 complete control
[15] = Preemergence, 500 g ai/ha, visual rating, 0 to 100 scale (0 no effect, 100 complete control)
[16] = Preemergence, 2000 g ai/ha, visual rating, 0 to 100 scale (0 no effect, 100 complete control)
[17] = preemergence, 500 g ai/ha, visual injury, 0 to 100 scale (0 no effect, 100 complete control)
[18] = 500 g ai/ha, visual rating 0-100, 0 no effect, 100 complete control
[19] = 125 g ai/ha, 0 to 100 scale, 0 is no effect, 100 is complete control

CCCCNS(=O)(=O)c1cccc(NC(=O)c2cc(C(C)(C)C)nn2C)c1 [Compound 125]
10: Surinam Grass plant response rating (Surinam grass; 500 g ai/ha)
20: Pigweed plant response rating (redroot pigweed; [13]) | Plant response rating, Pigweed (redroot pigweed; [14]) | Lambsquarters plant response rating (lambsquarters; 500 g ai/ha)
0: Barnyardgrass plant response rating (barnyardgrass [1]; [13]) | Plant response rating, Barnyardgrass (barnyardgrass [1]; [14]) | Barnyardgrass plant response rating (barnyardgrass [1]; [15]) | Barnyardgrass plant response rating (barnyardgrass [1]; [16]) | Crabgrass, Large plant response rating (large crabgrass [2]; [13]) | Plant response rating, Crabgrass, Large (large crabgrass [2]; [14]) | Crabgrass, Large plant response rating (large crabgrass [2]; [15]) | Crabgrass, Large plant response rating (large crabgrass [2]; [16]) | Foxtail, Giant plant response rating (giant foxtail [3]; [13]) | Plant response rating, Foxtail, Giant (giant foxtail [3]; [14]) | Foxtail, Giant plant response rating (giant foxtail [3]; [15]) | Foxtail, Giant plant response rating (giant foxtail [3]; [16]) | Morningglory plant response rating (morningglory [4]; [13]) | Plant response rating, Morningglory (morningglory [4]; [14]) | Morningglory plant response rating (morningglory [4]; [15]) | Morningglory plant response rating (morningglory [4]; [16]) | Pigweed plant response rating (redroot pigweed; [16]) | Pigweed plant response rating (redroot pigweed; [17]) | Velvetleaf plant response rating (velvetleaf [5]; [13]) | Plant response rating, Velvetleaf (velvetleaf [5]; [14]) | Velvetleaf plant response rating (velvetleaf [5]; [16]) | Velvetleaf plant response rating (velvetleaf [5]; [17]) | Plant response rating, Barnyardgrass (barnyardgrass [6]; [18]) | Barnyardgrass plant response rating (barnyardgrass [6]; 125 g ai/ha) | Barnyardgrass plant response rating (barnyardgrass [6]; 500 g ai/ha) | Plant response rating, Barnyardgrass (barnyardgrass [6]; [19]) | Plant response rating, Surinam Grass (Surinam grass; [18]) | Surinam Grass plant response rating (Surinam grass; 125 g ai/ha) | Plant response rating, Surinam Grass (Surinam grass; [19]) | Plant response rating, Cocklebur (cocklebur; [18]) | Cocklebur plant response rating (cocklebur; 125 g ai/ha) | Cocklebur plant response rating (cocklebur; 500 g ai/ha) | Plant response rating, Cocklebur (cocklebur; [19]) | Plant response rating, Corn (corn; [18]) | Corn plant response rating (corn; 125 g ai/ha) | Corn plant response rating (corn; 500 g ai/ha) | Plant response rating, Corn (corn; [19]) | Plant response rating, Crabgrass, Large (large crabgrass [7]; [18]) | Crabgrass, Large plant response rating (large crabgrass [7]; 125 g ai/ha) | Crabgrass, Large plant response rating (large crabgrass [7]; 500 g ai/ha) | Plant response rating, Crabgrass, Large (large crabgrass [7]; [19]) | Plant response rating, Foxtail, Giant (giant foxtail [8]; [18]) | Foxtail, Giant plant response rating (giant foxtail [8]; 125 g ai/ha) | Foxtail, Giant plant response rating (giant foxtail [8]; 500 g ai/ha) | Plant response rating, Foxtail, Giant (giant foxtail [8]; [19]) | Plant response rating, Lambsquarters (lambsquarters; [18]) | Lambsquarters plant response rating (lambsquarters; 125 g ai/ha) | Plant response rating, Lambsquarters (lambsquarters; [19]) | Morningglory plant response rating (morningglory [9]; 125 g ai/ha) | Morningglory plant response rating (morningglory [9]; 500 g ai/ha) | Plant response rating, Morningglory (morningglory [9]; preemergence, 125 g ai/ha, 0 to 100 scale, 0 is no effect, 100 is complete control) | Plant response rating, Pigweed (pigweed; [18]) | Pigweed plant response rating (pigweed; 125 g ai/ha) | Pigweed plant response rating (pigweed; 500 g ai/ha) | Plant response rating, Pigweed (pigweed; [19]) | Plant response rating, Velvetleaf (velvetleaf [10]; [18]) | Velvetleaf plant response rating (velvetleaf [10]; 125 g ai/ha) | Velvetleaf plant response rating (velvetleaf [10]; 500 g ai/ha) | Plant response rating, Velvetleaf (velvetleaf [10]; [19]) | Blackgrass plant response rating (blackgrass; 125 g ai/ha) | Blackgrass plant response rating (blackgrass; 500 g ai/ha) | Wheat plant response rating (wheat; 125 g ai/ha) | Wheat plant response rating (wheat; 500 g ai/ha) | Oat, Wild plant response rating (wild oat; 125 g ai/ha) | Oat, Wild plant response rating (wild oat; 500 g ai/ha) | Rice plant response rating (rice) | Sedge, Umbrella plant response rating [11] | Ducksalad plant response rating (ducksalad) | Barnyardgrass plant response rating (barnyardgrass [12])
